Measurements reported in PubChem BioAssay (NCI).
Where “and” joins values, the source holds several entries; their conditions need not be identical. Identical values can stand only once.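 Step 1: Grow cells in 96-well plates. Step 2: Expose to compound for 48 hours at 5 concentrations. Step 3: Interpolate endpoints linearly; if unreached, use highest concentration. GI50 = concentration required for 50% inhibition of growth. The concentration for full growth arrest is given as TGI.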

Experiments:
Assay in all cases: DTP human tumour cell line panel, 48 h
SF-295 CNS = system: SF-295 CNS
U251 CNS = system: U251 CNS
T-47D breast = system: T-47D breast
SNB-75 CNS = system: SNB-75 CNS
TK-10 renal = system: TK-10 renal
HCT-15 colon = system: HCT-15 colon
DU-145 prostate = system: DU-145 prostate
HOP-92 NSCLC = system: HOP-92 NSCLC
786-0 renal = system: 786-0 renal
M14 melanoma = system: M14 melanoma

CCN(CC)CC(O)c1cc(-c2ccc(Cl)cc2)nc2cc(Cl)ccc12 (stereo unspecified)
GI50 (SF-295 CNS): 1.81 µM
TGI (SF-295 CNS): 3.37 µM
GI50 (U251 CNS): 1.75 µM
TGI (U251 CNS): 3.34 µM
GI50 (T-47D breast): 2.53 µM
TGI (T-47D breast): 7.01 µM
GI50 (SNB-75 CNS): 1.69 µM
TGI (SNB-75 CNS): 7.14 µM
GI50 (TK-10 renal): 1.65 µM
TGI (TK-10 renal): 3.09 µM
GI50 (HCT-15 colon): 3.05 µM
TGI (HCT-15 colon): 9.26 µM
GI50 (DU-145 prostate): 2.27 µM
TGI (DU-145 prostate): 5.04 µM
GI50 (HOP-92 NSCLC): 1.83 µM
TGI (HOP-92 NSCLC): 7.38 µM
GI50 (786-0 renal): 1.9 µM
TGI (786-0 renal): 3.41 µM
GI50 (M14 melanoma): 1.83 µM
TGI (M14 melanoma): 3.44 µM

Cc1nc2cc(Nc3nc(Nc4ccc(F)cc4)nc(N4CCCC4)n3)ccc2n1Cc1ccccc1
GI50 (SF-295 CNS): 2.15 µM
TGI (SF-295 CNS): 4.78 µM
GI50 (U251 CNS): 1.66 µM
TGI (U251 CNS): 3.36 µM
GI50 (T-47D breast): 2.18 µM
TGI (T-47D breast): 4.94 µM
GI50 (SNB-75 CNS): 1.58 µM
TGI (SNB-75 CNS): 3.45 µM
GI50 (TK-10 renal): 1.89 µM
TGI (TK-10 renal): 3.37 µM
GI50 (HCT-15 colon): 1.88 µM
TGI (HCT-15 colon): 3.99 µM
GI50 (DU-145 prostate): 1.87 µM
TGI (DU-145 prostate): 3.35 µM
GI50 (HOP-92 NSCLC): 1.07 µM
TGI (HOP-92 NSCLC): 2.47 µM
GI50 (786-0 renal): 1.85 µM
TGI (786-0 renal): 3.46 µM
GI50 (M14 melanoma): 2.06 µM
TGI (M14 melanoma): 4.29 µM

COc1cccc(/C=C2\CCc3ccccc3C2=O)c1
GI50 (SF-295 CNS): 9.62 µM
TGI (SF-295 CNS): 27.3 µM
GI50 (U251 CNS): 5.3 µM
TGI (U251 CNS): 20.2 µM
GI50 (T-47D breast): 13.6 µM
TGI (T-47D breast): 38.9 µM
GI50 (SNB-75 CNS): 16.9 µM
TGI (SNB-75 CNS): 36 µM
GI50 (TK-10 renal): 15.1 µM
TGI (TK-10 renal): 34.6 µM
GI50 (HCT-15 colon): 10.5 µM
TGI (HCT-15 colon): 49.4 µM
GI50 (DU-145 prostate): 6.07 µM
TGI (DU-145 prostate): 18.7 µM
GI50 (HOP-92 NSCLC): 13.3 µM
TGI (HOP-92 NSCLC): 35.4 µM
GI50 (786-0 renal): 18.2 µM
TGI (786-0 renal): 39.9 µM
GI50 (M14 melanoma): 17 µM
TGI (M14 melanoma): 39.6 µM

Cn1c(=O)c(-c2c(Cl)cccc2Cl)cc2cnc(Nc3ccc(I)cc3)nc21
GI50 (SF-295 CNS): 0.147 µM
TGI (SF-295 CNS): 1.41 µM
GI50 (U251 CNS): 0.305 µM
TGI (U251 CNS): 13.6 µM
GI50 (T-47D breast): 0.229 µM
TGI (T-47D breast): > 100 µM
GI50 (SNB-75 CNS): 0.017 µM
TGI (SNB-75 CNS): 0.155 µM
GI50 (TK-10 renal): 0.459 µM
TGI (TK-10 renal): 2.12 µM
GI50 (HCT-15 colon): 2.87 µM
TGI (HCT-15 colon): 9.42 µM
GI50 (DU-145 prostate): < 0.01 µM
TGI (DU-145 prostate): 0.139 µM
GI50 (HOP-92 NSCLC): 0.0179 µM
TGI (HOP-92 NSCLC): 4.94 µM
GI50 (786-0 renal): 1.95 µM
TGI (786-0 renal): 6.22 µM
TGI (M14 melanoma): 0.346 µM

COc1ccc2c(c1)CC1N(C)CCC13CCCCC23 (stereo unspecified)
TGI (SF-295 CNS): > 100 µM
TGI (U251 CNS): > 100 µM
TGI (T-47D breast): > 100 µM
TGI (SNB-75 CNS): > 100 µM
TGI (TK-10 renal): > 100 µM
TGI (HCT-15 colon): > 100 µM
TGI (DU-145 prostate): > 100 µM
TGI (HOP-92 NSCLC): > 100 µM
TGI (786-0 renal): > 100 µM
TGI (M14 melanoma): > 100 µM

CC(C)(N)C(=O)N[C@@H]1C(=O)N2[C@@H]1SC(C)(C)[C@@H]2C(=O)O
TGI (SF-295 CNS): > 100 µM
TGI (U251 CNS): > 100 µM
TGI (T-47D breast): > 100 µM
TGI (SNB-75 CNS): > 100 µM
TGI (TK-10 renal): > 100 µM
TGI (HCT-15 colon): > 100 µM
TGI (DU-145 prostate): > 100 µM
TGI (HOP-92 NSCLC): > 100 µM
TGI (786-0 renal): > 100 µM
TGI (M14 melanoma): > 100 µM

NCCCCCCCCCn1c2c(c3ccccc3c1=O)C(=O)c1ccccc1-2
GI50 (SF-295 CNS): 9.67 µM
TGI (SF-295 CNS): 20.8 µM
GI50 (U251 CNS): 9.52 µM
TGI (U251 CNS): 19.1 µM
GI50 (T-47D breast): 9.33 µM
TGI (T-47D breast): 22 µM
GI50 (SNB-75 CNS): 10.7 µM
TGI (SNB-75 CNS): 21.7 µM
GI50 (TK-10 renal): 8.8 µM
TGI (TK-10 renal): 17.4 µM
GI50 (HCT-15 colon): 6.03 µM
TGI (HCT-15 colon): 16.2 µM
GI50 (DU-145 prostate): 5.98 µM
TGI (DU-145 prostate): 15.9 µM
GI50 (HOP-92 NSCLC): 10.1 µM
TGI (HOP-92 NSCLC): 21.1 µM
GI50 (786-0 renal): 7.72 µM
TGI (786-0 renal): 15.9 µM
GI50 (M14 melanoma): 9.67 µM
TGI (M14 melanoma): 18 µM

COc1cc2oc(-c3ccc(O)cc3)cc(=O)c2c(OC)c1O
TGI (SF-295 CNS): > 100 µM
TGI (U251 CNS): > 100 µM
TGI (T-47D breast): 88.2 µM
TGI (SNB-75 CNS): 55.1 µM
TGI (TK-10 renal): > 100 µM
TGI (HCT-15 colon): > 100 µM
TGI (DU-145 prostate): > 100 µM
TGI (HOP-92 NSCLC): > 100 µM
TGI (786-0 renal): > 100 µM
TGI (M14 melanoma): > 100 µM

O=C(NC(Cc1ccccc1)C(=O)CCl)OCc1ccccc1 (stereo unspecified)
TGI (SF-295 CNS): 33 µM and 29.2 µM
GI50 (U251 CNS): 6.97 µM
TGI (U251 CNS): 19.6 µM and 22.8 µM
GI50 (T-47D breast): 3.37 µM
TGI (T-47D breast): 16.7 µM
GI50 (SNB-75 CNS): 4.77 µM
TGI (SNB-75 CNS): 18.9 µM and 30.2 µM
GI50 (TK-10 renal): 2.58 µM
TGI (TK-10 renal): 9.43 µM and 28.4 µM
GI50 (HCT-15 colon): 2.32 µM
TGI (HCT-15 colon): 8.56 µM and 17.8 µM
GI50 (DU-145 prostate): 10.9 µM
TGI (DU-145 prostate): 22.9 µM
TGI (HOP-92 NSCLC): 28.3 µM
TGI (786-0 renal): 14.7 µM and 16.6 µM
GI50 (M14 melanoma): 4.69 µM
TGI (M14 melanoma): 19.2 µM and 23 µM

COC(=O)[C@H](C)[C@@H]1CC[C@](C)(CCC2=C(C)CCCC2(C)C)OO1
TGI (SF-295 CNS): > 25 µM
TGI (U251 CNS): > 25 µM
TGI (T-47D breast): > 25 µM
TGI (SNB-75 CNS): > 25 µM
TGI (TK-10 renal): > 25 µM
TGI (HCT-15 colon): > 25 µM
TGI (DU-145 prostate): > 25 µM
TGI (HOP-92 NSCLC): > 25 µM
TGI (786-0 renal): > 25 µM
TGI (M14 melanoma): > 25 µM

CC/C(=C(/CC)c1ccc(O)cc1)c1ccc(O)cc1
GI50 (SF-295 CNS): 2.73 µM
TGI (SF-295 CNS): 11.6 µM
GI50 (U251 CNS): 4.91 µM
TGI (U251 CNS): 18.2 µM
GI50 (T-47D breast): 6.85 µM
TGI (T-47D breast): 47 µM
GI50 (SNB-75 CNS): 2.2 µM
TGI (SNB-75 CNS): 6.48 µM
GI50 (TK-10 renal): 14.8 µM
TGI (TK-10 renal): 37.6 µM
GI50 (HCT-15 colon): 4.79 µM
TGI (HCT-15 colon): 20 µM
GI50 (DU-145 prostate): 10 µM
TGI (DU-145 prostate): 22.4 µM
GI50 (HOP-92 NSCLC): 5.1 µM
TGI (HOP-92 NSCLC): 17.2 µM
GI50 (786-0 renal): 5.59 µM
TGI (786-0 renal): 18.6 µM
GI50 (M14 melanoma): 4.57 µM
TGI (M14 melanoma): 15.7 µM

[Au+].c1c[n-]cn1.c1ccc([PH+](c2ccccc2)c2ccccc2)cc1
GI50 (SF-295 CNS): 11.8 µM
TGI (SF-295 CNS): 26.6 µM
GI50 (U251 CNS): 3.77 µM
TGI (U251 CNS): 26.2 µM
GI50 (T-47D breast): 2.02 µM
TGI (T-47D breast): 4.74 µM
GI50 (SNB-75 CNS): 15.2 µM
TGI (SNB-75 CNS): 33.7 µM
GI50 (TK-10 renal): 2.66 µM
TGI (TK-10 renal): 6.46 µM
GI50 (HCT-15 colon): 3.42 µM
TGI (HCT-15 colon): 15.8 µM
GI50 (DU-145 prostate): 17.2 µM
TGI (DU-145 prostate): 36.5 µM
GI50 (HOP-92 NSCLC): 2.36 µM
TGI (HOP-92 NSCLC): 4.79 µM
GI50 (786-0 renal): 1.66 µM
TGI (786-0 renal): 3.04 µM
GI50 (M14 melanoma): 2.34 µM
TGI (M14 melanoma): 6.73 µM

Cc1cc(Cl)ccc1Nc1nc2c(s1)C(=O)c1ccccc1C2=O
TGI (SF-295 CNS): 24.2 µM
TGI (U251 CNS): 12.7 µM
TGI (T-47D breast): 7.06 µM
TGI (SNB-75 CNS): 22 µM
TGI (TK-10 renal): 33.4 µM
TGI (HCT-15 colon): 3.68 µM
TGI (DU-145 prostate): 3.04 µM
TGI (HOP-92 NSCLC): 27.2 µM
TGI (786-0 renal): 4.38 µM
TGI (M14 melanoma): 1.99 µM

NC(CSC1(c2ccc(Cl)cc2)c2ccccc2-c2ccccc21)C(=O)O (stereo unspecified)
TGI (SF-295 CNS): 37.7 µM
TGI (U251 CNS): 29.6 µM
TGI (T-47D breast): > 100 µM
TGI (SNB-75 CNS): 62.9 µM
TGI (TK-10 renal): 48.3 µM
TGI (HCT-15 colon): 47.3 µM
TGI (DU-145 prostate): > 100 µM
TGI (HOP-92 NSCLC): 47.4 µM
TGI (786-0 renal): 50.9 µM
TGI (M14 melanoma): 68.4 µM

Cn1cc(-c2ccc3nnc(C(F)(F)c4ccc5ncccc5c4)n3n2)cn1
GI50 (SF-295 CNS): 3.82 µM
TGI (SF-295 CNS): > 100 µM
GI50 (U251 CNS): 58.4 µM
TGI (U251 CNS): > 100 µM
GI50 (T-47D breast): 40.8 µM
TGI (T-47D breast): > 100 µM
GI50 (SNB-75 CNS): 22.2 µM
TGI (SNB-75 CNS): > 92.4 µM
GI50 (TK-10 renal): 32.1 µM
TGI (TK-10 renal): > 100 µM
GI50 (HCT-15 colon): 73 µM
TGI (HCT-15 colon): > 100 µM
GI50 (DU-145 prostate): 53.9 µM
TGI (DU-145 prostate): > 100 µM
GI50 (HOP-92 NSCLC): 10.6 µM
TGI (HOP-92 NSCLC): > 88.9 µM
GI50 (786-0 renal): 46 µM
TGI (786-0 renal): > 100 µM
GI50 (M14 melanoma): > 100 µM
TGI (M14 melanoma): > 100 µM
